Experimental data taken from paper PMC6838013, “Insight Into Mosquito GnRH-Related Neuropeptide Receptor Specificity Revealed Through Analysis of Naturally Occurring and Synthetic Analogs of This Neuropeptide Family” (Frontiers in Endocrinology, 2019).
Where “and” joins values, the source holds several entries; their conditions need not be identical. Equal entries are not always repeated. Non-standard residues stand in square brackets, D forms with d. Residues, ends and D or L forms follow the SMILES beside them. pGlu = O=C1CC[C@@H](C(=O)O)N1

Key:
[1] = system: A. aegypti ACP receptor (AedaeACPR); assay: Calcium bioluminescence (aequorin) reporter assay of heterologously expressed ACPR; assay type: cell-based, Aedes aegypti; conditions: for Fold-reduction in activity relative to AedaeACP: ACPR in CHO-K1 aequorin cells, relative to native Aedae-ACP; for EC50: CHO-K1 cells stably expressing aequorin, transiently transfected with ACPR and murine Gα15 (pBudCE4.1), luminescence 20 s, 3 to 4 independent biological replicates, ND = no determined EC50 due to minimal or no detectable activity up to 10 μM; for Activity on ACPR at the highest tested dose, in words: 10 μM, Figure 2, ANOVA and Tukey post-test
From the text: Therefore, to improve the bioluminescent signal linked to calcium mobilization following receptor activation, which was required in order to provide greater signal to noise ratio when testing ACP analogs with substitutions leading to intermediate levels of activation of the ACPR, we created a new mammalian expression construct using the dual promoter vector, pBudCE4.1. Specifically, we utilized a cloning strategy as reported previously ([41]) whereby the ACPR was inserted into the multiple cloning site (MCS) downstream of the CMV promoter in pBudCE4.1 using the sense primer SalI-KozakACPR, 5′-[…]-3′ and anti-sense primer XbaI-ACPR, 5′-[…]-3′, which directionally inserted the ACPR within the MCS downstream of the CMV promoter. Secondly, the murine homolog (Gα15) of the human promiscuous G protein, Gα16, which indiscriminately couples a wide variety of GPCRs to calcium signaling ([42]) was inserted into the MCS downstream of the EF1-α promoter in pBudCE4.1 using the sense primer NotI-Gα15, 5′-[…]-3′ and anti-sense primer BglII-Gα15, 5′-[…]-3′, which directionally inserted the murine Gα15 within the MCS downstream of the EF1-α promoter.
(§1) Functional activation of the AedaeACPR and AedaeAKHR-IA receptors was carried out following a previously described mammalian cell culture system involving a Chinese hamster ovary (CHO)-K1 cell line stably expressing aequorin ([43]). Cells were grown in DMEM:F12 media containing 10% heat-inactivated fetal bovine serum (Wisent, St. Bruno, QC), 200 μg/mL Geneticin, 1x antimycotic-antibiotic to approximately 90% confluency, and were transiently transfected using either Lipofectamine LTX with Plus Reagent or Lipofectamine 3000 transfection systems (Invitrogen, Burlington, ON) following manufacturer recommended DNA to transfection reagent ratios. Cells were detached from the culture flasks at 48 h post-transfection using 5 mM EDTA in Dulbecco's PBS. Cells were then prepared for the receptor functional assay following a procedure described previously ([27]). Stocks of peptide analogs of ACP and AKH were used for preparation of serial dilutions all of which were prepared in assay media (0.1% BSA in DMEM:F12) and loaded in quadruplicates into 96-well white luminescence plates (Greiner Bio-One, Germany). Cells were loaded with an automatic injector into each well of the plate containing different peptide analogs at various concentrations as well as negative control (assay media alone) and positive control wells (50 μM ATP). Immediately after injection of the cells, luminescence was measured for 20 s using a Synergy 2 Multi-Mode Microplate Reader (BioTek, Winooski, VT, USA). Calculations, including determination of EC50 values, were conducted in GraphPad Prism 7.02 (GraphPad Software, San Diego, USA) from dose-response curves from 3 to 4 independent biological replicates.

[2] = target: A. aegypti AKHR-IA receptor (AKHR-IA) (Aedes aegypti, UniProt A0A2P1A8S4); assay: Calcium bioluminescence (aequorin) reporter assay of heterologously expressed AKHR-IA; assay type: cell-based; conditions: for Fold-reduction in activity relative to Aedae-AKH: AKHR-IA in CHO-K1 aequorin cells, relative to native Aedae-AKH; for EC50: CHO-K1 cells stably expressing aequorin, transiently transfected with AKHR-IA (pcDNA3.1+), luminescence 20 s, 3 to 4 independent biological replicates, ND = no determined EC50 due to minimal or no detectable activity up to 10 μM
Chain of A. aegypti AKHR-IA receptor (AKHR-IA) (A0A2P1A8S4 1-410): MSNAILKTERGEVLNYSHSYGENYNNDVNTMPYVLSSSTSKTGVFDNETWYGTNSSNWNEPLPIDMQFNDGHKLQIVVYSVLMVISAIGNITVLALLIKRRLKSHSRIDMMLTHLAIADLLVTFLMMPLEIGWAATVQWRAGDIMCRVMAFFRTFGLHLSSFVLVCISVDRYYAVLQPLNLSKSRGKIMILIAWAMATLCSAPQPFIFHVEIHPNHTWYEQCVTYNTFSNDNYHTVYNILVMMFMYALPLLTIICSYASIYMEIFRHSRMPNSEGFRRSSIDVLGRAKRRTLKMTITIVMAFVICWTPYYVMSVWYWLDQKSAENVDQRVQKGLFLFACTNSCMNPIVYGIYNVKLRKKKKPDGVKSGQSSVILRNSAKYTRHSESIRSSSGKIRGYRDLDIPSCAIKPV
Procedure: For each construct, an overnight liquid culture of clonal recombinant bacteria containing the appropriate plasmid construct was grown in antibiotic-containing LB media and used to isolate midiprep DNA using the PureLink Midiprep kit (Life Technologies, Burlington, ON). Midiprep samples were then quantified and sent for sequencing as described previously ([26], [27]).
as §1

Molecule | Fold-reduction in activity relative to AedaeACP [1] | EC50 [1] | other results
CC(C)[C@H](NC(=O)[C@@H]1CCC(=O)N1)C(=O)N[C@H](C(=O)N[C@@H](Cc1ccccc1)C(=O)N[C@@H](CO)C(=O)N[C@@H](CCCNC(=N)N)C(=O)N[C@@H](CC(=O)O)C(=O)N[C@@H](Cc1c[nH]c2ccccc12)C(N)=O)[C@@H](C)O [Aedae-ACP (1-8)] ([pGlu]VTFSRDW-NH2) | 410.1 fold | 2.16 µM | –
CC(C)[C@H](NC(=O)[C@@H]1CCC(=O)N1)C(=O)N[C@H](C(=O)N[C@@H](Cc1ccccc1)C(=O)N[C@@H](CO)C(=O)N[C@@H](CCCNC(=N)N)C(=O)N[C@@H](CC(=O)O)C(=O)N[C@@H](Cc1c[nH]c2ccccc12)C(=O)N[C@@H](CC(N)=O)C(N)=O)[C@@H](C)O [Aedae-ACP (1-9)] ([pGlu]VTFSRDWN-NH2) | 434.2 fold | 4.15 µM | –
CC(C)[C@H](NC(=O)[C@@H]1CCC(=O)N1)C(=O)N[C@H](C(=O)N[C@@H](Cc1ccccc1)C(=O)N[C@@H](CO)C(=O)N[C@@H](CCCNC(=N)N)C(=O)N[C@@H](CC(=O)O)C(=O)N[C@@H](Cc1c[nH]c2ccccc12)C(=O)N[C@@H](CC(N)=O)C(=O)N[C@@H](C)C(=O)NCC(N)=O)[C@@H](C)O [Aedae-ACP (+G)] ([pGlu]VTFSRDWNAG-NH2) | 5.6 fold | 0.111 µM | –
C[C@H](NC(=O)[C@H](CC(N)=O)NC(=O)[C@H](Cc1c[nH]c2ccccc12)NC(=O)[C@H](CC(=O)O)NC(=O)[C@H](CCCNC(=N)N)NC(=O)[C@H](CO)NC(=O)[C@H](Cc1ccccc1)NC(=O)[C@@H](NC(=O)[C@H](C)NC(=O)[C@@H]1CCC(=O)N1)[C@@H](C)O)C(N)=O [Aedae-ACP (A2)] ([pGlu]ATFSRDWNA-NH2) | – | 0.705 µM | –
CC(C)[C@H](NC(=O)[C@@H]1CCC(=O)N1)C(=O)N[C@H](C(=O)N[C@@H](Cc1ccccc1)C(=O)N[C@@H](C)C(=O)N[C@@H](CCCNC(=N)N)C(=O)N[C@@H](CC(=O)O)C(=O)N[C@@H](Cc1c[nH]c2ccccc12)C(=O)N[C@@H](CC(N)=O)C(=O)N[C@@H](C)C(N)=O)[C@@H](C)O [Aedae-ACP (A5)] ([pGlu]VTFARDWNA-NH2) | 44.9 fold | 1.04 µM | –
CC(C)[C@H](NC(=O)[C@@H]1CCC(=O)N1)C(=O)N[C@H](C(=O)N[C@@H](Cc1ccccc1)C(=O)N[C@@H](CO)C(=O)N[C@@H](C)C(=O)N[C@@H](CC(=O)O)C(=O)N[C@@H](Cc1c[nH]c2ccccc12)C(=O)N[C@@H](CC(N)=O)C(=O)N[C@@H](C)C(N)=O)[C@@H](C)O [Aedae-ACP (A6)] ([pGlu]VTFSADWNA-NH2) | 23.3 fold | 0.687 µM | –
CC(C)[C@H](NC(=O)[C@@H]1CCC(=O)N1)C(=O)N[C@H](C(=O)N[C@@H](Cc1ccccc1)C(=O)N[C@@H](CO)C(=O)N[C@@H](CCCNC(=N)N)C(=O)N[C@@H](C)C(=O)N[C@@H](Cc1c[nH]c2ccccc12)C(=O)N[C@@H](CC(N)=O)C(=O)N[C@@H](C)C(N)=O)[C@@H](C)O [Aedae-ACP (A7)] ([pGlu]VTFSRAWNA-NH2) | 15.9 fold | 0.386 µM | –
CC(C)[C@H](NC(=O)[C@@H]1CCC(=O)N1)C(=O)N[C@H](C(=O)N[C@@H](Cc1ccccc1)C(=O)N[C@@H](CO)C(=O)N[C@@H](CCCNC(=N)N)C(=O)N[C@@H](CC(=O)O)C(=O)N[C@@H](Cc1c[nH]c2ccccc12)C(=O)N[C@@H](C)C(=O)N[C@@H](C)C(N)=O)[C@@H](C)O [Aedae-ACP (A9)] ([pGlu]VTFSRDWAA-NH2) | 0.2 fold | 0.00496 µM | –
CC(C)C[C@H](NC(=O)[C@@H]1CCC(=O)N1)C(=O)N[C@@H](CC(N)=O)C(=O)N[C@@H](Cc1ccccc1)C(=O)N[C@H](C(=O)N1CCC[C@H]1C(=O)N[C@@H](CO)C(=O)N[C@@H](Cc1c[nH]c2ccccc12)C(N)=O)[C@@H](C)O [Erysi-AKH] ([pGlu]LNFTPSW-NH2) | – | – | Fold-reduction in activity relative to Aedae-AKH [2]: 310 fold and 309.9 fold; EC50 [2]: 0.669 µM
CC[C@H](C)[C@H](NC(=O)[C@@H]1CCC(=O)N1)C(=O)N[C@H](C(=O)N[C@@H](Cc1ccccc1)C(=O)N[C@@H](CO)C(=O)N[C@@H](CCCNC(=N)N)C(=O)N[C@@H](CC(=O)O)C(=O)N[C@@H](Cc1c[nH]c2ccccc12)C(=O)N[C@@H](CC(N)=O)C(=O)N[C@@H](C)C(N)=O)[C@@H](C)O [Grybi-ACP] ([pGlu]ITFSRDWNA-NH2) | 13.6 fold | 0.326 µM | Activity on ACPR at the highest tested dose, in words [1]: failed to reach full ACPR activation
CC(C)[C@H](NC(=O)[C@@H]1CCC(=O)N1)C(=O)N[C@@H](CC(N)=O)C(=O)N[C@@H](Cc1ccccc1)C(=O)N[C@@H](CO)C(=O)N[C@H](C(=O)NCC(=O)N[C@@H](Cc1c[nH]c2ccccc12)C(N)=O)[C@@H](C)O [Grybi-AKH] ([pGlu]VNFSTGW-NH2) | – | – | EC50 [2]: 2.23 µM
CC(C)C[C@H](NC(=O)[C@@H]1CCC(=O)N1)C(=O)N[C@H](C(=O)N[C@@H](Cc1ccccc1)C(=O)N[C@H](C(=O)N[C@@H](CO)C(=O)N[C@@H](CO)C(=O)N[C@@H](Cc1c[nH]c2ccccc12)C(N)=O)[C@@H](C)O)[C@@H](C)O [Hipes-AKH-I] ([pGlu]LTFTSSW-NH2) | – | – | Fold-reduction in activity relative to Aedae-AKH [2]: 7.6 fold; EC50 [2]: 0.0165 µM
CC(C)[C@H](NC(=O)[C@@H]1CCC(=O)N1)C(=O)N[C@@H](CC(N)=O)C(=O)N[C@@H](Cc1ccccc1)C(=O)N[C@H](C(=O)N1CCC[C@H]1C(=O)N[C@@H](CO)C(=O)N[C@@H](Cc1c[nH]c2ccccc12)C(N)=O)[C@@H](C)O [Libau-AKH] ([pGlu]VNFTPSW-NH2) | – | – | Fold-reduction in activity relative to Aedae-AKH [2]: 548 fold and 547.9 fold; EC50 [2]: 1.18 µM; Improved AKHR-IA activation over that achieved by Grybi-AKH ([2]; relative to Grybi-AKH): ~2 fold
CC(C)C[C@H](NC(=O)[C@@H]1CCC(=O)N1)C(=O)N[C@H](C(=O)N[C@@H](Cc1ccccc1)C(=O)N[C@H](C(=O)N1CCC[C@H]1C(=O)N[C@@H](CC(N)=O)C(=O)N[C@@H](Cc1c[nH]c2ccccc12)C(N)=O)[C@@H](C)O)[C@@H](C)O [Peram-CAH-II] ([pGlu]LTFTPNW-NH2) | – | – | Fold-reduction in activity relative to Aedae-AKH [2]: 1.0 fold; EC50 [2]: 0.00223 µM
Ac-AVTFSRDWNA-NH2 [Aedae-ACP (A1b)] | 43.6 fold | 0.527 µM | –
H-AVTFSRDWNA-NH2 [Aedae-ACP (A1)] | – | 1.58 µM | –
pQ-TFSRDWNAamide [Aedae-ACP (1,3-10), internally truncated ACP analog lacking valine in the second position] | >1,000 fold | – | –
pQLTFSSGWGNamide [Helze-AKH, naturally-occurring insect AKH decapeptide] | >1,000 fold | – | Activity on ACPR at the highest tested dose, in words [1]: low activity
pQLTFTPSWamide [Aedae-AKH, endogenous octapeptide adipokinetic hormone of Aedes aegypti] | – | – | Activity on ACPR at the highest tested dose, in words [1]: inactive
pQLTFTSSWGGamide [Lacol-AKH, naturally-occurring insect AKH decapeptide] | >1,000 fold | – | Activity on ACPR at the highest tested dose, in words [1]: low activity
pQVTASRDWNAamide [Aedae-ACP (A4), synthetic ACP analog, alanine at position 4] | >1,000 fold | – | –
pQVTFSRDANAamide [Aedae-ACP (A8), synthetic ACP analog, alanine at position 8] | >1,000 fold | – | –
pQVTFSRDWNA-OH [Aedae-ACP (-OH), non-amidated (free acid) ACP analog] | >1,000 fold | – | –
